Results reported in patent US12247022B2, “Combinations for treatment of NASH/NAFLD and related diseases” (Pfizer Inc., priority 2018, dated 2025).

Assays:
Type in all cases: in vivo, rat
[1] = test system: CDAHFD fed Male Wistar Hann rats; experiment: Liver stiffness by shearwave elastography, CDAHFD fed rats; conditions: twice daily for 6 weeks, Compound A 5 mg/kg, Compound D 30 mg/kg, or co-administration
Protocol: (§1) A randomized, vehicle-controlled, 5-parallel arm study was conducted in male Wistar-Han rats (Charles River (Boston, MA)) fed a choline-deficient and high fat diet (CDAHFD) (Research diets; A16092003) to identify differences in improvements in markers of hepatic inflammation and fibrosis when administering either Compound A or Compound D alone as monotherapy or in combination. Standard laboratory conditions were used to house 60 rats (˜200 g); they were double housed and kept under 12:12-hour reverse light-dark schedule (lights off at 8:00 AM). Rats were fed choline deficient and high fat diet (CDAHFD) beginning 6-weeks prior to initiation of the study. Rats, randomized into 4 dosing groups (n=12/group), received twice daily administration of vehicle, Compound A (5 mg/kg) monotherapy, Compound D (30 mg/kg) monotherapy, or co-administration Compound A (5 mg/kg) and Compound D (30 mg/kg) for a period of 6-weeks. Animals (n=12) remaining on normal chow throughout the study and administered twice-daily vehicle were used as a control group. Blood samples were collected prior to starting compound administration and 3- and 6-week post compound administration for the assessment of circulating markers. […] Histology was assessed following 6-weeks of drug administration which corresponded to 12 weeks on the CDAHFD. […]

[2] = test system: alpha smooth muscle actin (αSMA); experiment: Hepatic αSMA gene expression (qPCR), CDAHFD fed rats; conditions: twice daily for 6 weeks, Compound A 5 mg/kg, Compound D 30 mg/kg, or co-administration, Actb
Protocol: as §1, with “6-weeks.” for “6-weeks. Animals (n=12) remaining on normal chow throughout the study and administered twice-daily vehicle were used as a control group. Blood samples were collected prior to starting compound administration and 3- and 6-week post compound administration for the assessment of circulating markers.”
Following the 12-weeks on CDAHFD, the animals were sacrificed by CO2 asphyxiation. […] A portion of the pulverized liver sample from each animal was processed and analyzed for gene expression markers of fibrogenesis. Rat taqman probes against […]SMA and COL1A1 were all assessed using Actb as housekeeping gene on qPCR.

[3] = test system: Western diet fed Sprague Dawley rats; experiment: Fed plasma triglyceride (TG), Western diet fed rats, oral dosing; conditions: 2 hours post dose; for increase in plasma TG in the fed state, relative to vehicle-administered Western diet fed rats: oral monotherapy; for reduction of plasma TG in the fed state, relative to vehicle-administered Western diet fed rats: oral
Protocol: (§2) A randomized, vehicle-controlled, 8-parallel arm study was conducted in male Sprague-Dawley rats (Charles River (Boston, MA)) to obtain circulating and hepatic TG levels. Standard laboratory conditions were used to house 96 rats (˜200 g); they were double housed and kept under 12:12-hour reverse light-dark schedule (lights off at 8:00 AM). Rats were randomized into chow or Western diet groups and dose groups upon arrival and were given a 14-day lead-in period on either standard rat chow or Western diet prior to the start of the study. Standard Laboratory Rodent chow diet, 5053, was from LabDiet (PMI, St Louis, Missouri). Western Diet, D12079Bi, was from Research Diets (New Brunswick, New Jersey).
For these studies, vehicle was prepared to make a 0.5% (wt/volume) of methyl cellulose (MC, Sigma Aldrich; 274429) in deionized water. The stock solutions with either Compound A (prepared from the tris salt) or Compound D were prepared with the respective compound to provide a concentration such that 10 ml of the solution would deliver the desired mg/kg dosage amount, where the average weight of the rats used was about 200 g.
Starting on Day 1 of the study, rats were dosed orally (10 mL/kg) with either vehicle control (0.5% MC (wt/volume %) in dionized water), low or high doses of Compound A (1 mg/kg or 10 mg/kg QD, respectively), low or high doses of Compound D (5 mg/kg or 30 mg/kg BID respectively), or co-administration of low doses (Compound A at 1 mg/kg QD and Compound D at 5 mg/kg BID), or co-administration of high doses (Compound A at 10 mg/kg QD and Compound D at 30 mg/kg BID)
Fed plasma analytes: Blood for determining fed plasma TG concentrations was collected 2 hours post dose (2 hours into the dark cycle) via lateral tail vein, transferred to BD Microtainer tubes coated with dipotassium ethylenediaminetetraacetic acid (K2EDTA) (PN365974), and centrifuged at 4° C. The resulting plasma samples were then analyzed on a Siemens Chemistry XPT clinical analyzer (Malven, PA) using Siemens triglycerides_2 assay reagents (ref 10335892).

[4] = test system: proprotein convertase subtilisin/kexin type 9 (PCSK9); experiment: Hepatic lipogenic gene expression (qPCR), Western diet fed rats: PCSK9; conditions: Actb housekeeping gene, Day 28 liver
Protocol: as §2
(§3) Starting on Day 1 of the study, rats were dosed orally (10 mL/kg) with either vehicle control (0.5% MC (wt/volume %) in dionized water), low or high doses of Compound A (1 mg/kg or 10 mg/kg QD, respectively), low or high doses of Compound D (5 mg/kg or 30 mg/kg BID respectively), or co-administration of low doses (Compound A at 1 mg/kg QD and Compound D at 5 mg/kg BID), or co-administration of high doses (Compound A at 10 mg/kg QD and Compound D at 30 mg/kg BID) […]
(§4) Another portion of the pulverized liver was processed and analyzed for lipogenic gene expression. Rat taqman probes against ACC1, FASN, SCD1, PCSK9 and SREBP-1c were all assessed using Actb as housekeeping gene on qPCR.

[5] = test system: sterol regulatory element-binding protein 1c (SREBP-1c); experiment: Hepatic lipogenic gene expression (qPCR), Western diet fed rats: SREBP-1c; conditions: Actb housekeeping gene, Day 28 liver
Protocol: as §2, §3, §4

SMILES | liver stiffness (shearwave elastography, kPa) [1] | hepatic αSMA gene expression [2] | increase in plasma TG in the fed state, relative to vehicle-administered Western diet fed rats ([3]; high dose (Compound A 10 mg/kg QD)) [fold] | increase in plasma TG in the fed state, relative to vehicle-administered Western diet fed rats ([3]; low dose (Compound A 1 mg/kg QD)) [fold] | hepatic PCSK9 gene expression relative to Western Diet fed and vehicle treated animals [4] | hepatic SREBP1 gene expression relative to Western Diet fed and vehicle treated animals [5] | reduction of plasma TG in the fed state, relative to vehicle-administered Western diet fed rats ([3]; high dose (Compound D 30 mg/kg BID; co-administration: Compound A 10 mg/kg QD and Compound D 30 mg/kg BID)) [%] | reduction of plasma TG in the fed state, relative to vehicle-administered Western diet fed rats ([3]; low dose (Compound D 5 mg/kg BID; co-administration: Compound A 1 mg/kg QD and Compound D 5 mg/kg BID)) [%]
COc1cc(C(=O)N2CCC3(CC2)CC(=O)c2c(cnn2C(C)C)C3)cc(-c2ccc(C(=O)O)cc2)n1 [Compound A, 4-(4-(1-isopropyl-7-oxo-1,4,6,7-tetrahydrospiro[indazole-5,4′-piperidine]-1′-carbonyl)-6-methoxypyridin-2-yl)benzoic acid] | reduced liver stiffness | reduced | 1.3 | 1.7 | – | – | – | –
CCOc1cccnc1Oc1cncc(-c2ncc(C(=O)N[C@H]3CCOC3)cn2)c1 [Compound D, (S)-2-(5-((3-ethoxypyridin-2-yl)oxy)pyridin-3-yl)-N-(tetrahydrofuran-3-yl)pyrimidine-5-carboxamide] | reduced liver stiffness | reduced | – | – | decreased expression | decreased expression | 63 | 55
